Experiment [1] has as its system NASH mice (STAM model). Kind of experiment: In vivo study 1 to assess effects on NASH (STAM model). More on the design: species or system C57BL/6 mice. The text has this:
(§1) The study was made on STAM model.
(§2) Pathogen-free fourteen day-pregnant C57BL/6 mice have been obtained from Japan SLC, Inc. (Japan). NASH has been established in male mice by a single subcutaneous injection of streptozotocin (Sigma, USA) after birth and feeding with a high fat diet (CLEA Japan, Japan) ad libitum after four weeks of age (day 28±2). Mice have been randomized into three groups of ten mice at six weeks of age (day 42±2), and three groups of ten mice at nine weeks of age (day 63±2), in the days before the start of treatment. Individual body weights have been measured daily during the treatment period. Food consumption has been measured twice per week during the treatment period. Survival, clinical signs and behavior of mice have been monitored daily.
The NASH in vivo study had 3 arms:
(§3) Group 1 (Vehicle): Ten NASH mice have been orally administered the same vehicle (0.5% methyl cellulose in water) as the mice receiving compound (1).
Group 2 (Telmisartan): Five mice have been administered the same vehicle supplemented with Telmisartan at a dose of 100 mg/kg (in 0.5% methyl cellulose in water) once daily from six to nine (6 to 9) weeks of age.
Group 3 (compound (1)): Ten NASH mice have be orally administered vehicle supplemented with compound (1) at a dose of 100 mg/kg (in 0.5% methyl cellulose in water) once daily from six to nine (6 to 9) weeks of age. The assessed parameters and histological outcome measures are described below.
(§4) The following measurements have been conducted for both in vivo studies: • Individual liver weight • Individual body weight • Plasma ALT (Alanine AminoTransferase), AST (Aspartate AminoTransferase), triglyceride, and total cholesterol have been measured by FUJI DRI-CHEM (Fujifilm, Japan) • Liver triglyceride has been quantified by Triglyceride E-test kit (Wako, Japan) • Histological analyses for liver sections (according to routine methods) • HE (Hematoxylin Eosin) staining and estimation of NAFLD Activity score (NAS) […]

The test system of experiment [2] is NASH mice (STAM model). Kind of experiment: In vivo study 2 to assess effects on fibrosis (STAM model). Also on record: species or system C57BL/6 mice.
From the text: as §1, §2
The fibrosis in vivo study had 3 arms:
as §3
Group 2 (Telmisartan): Five mice have been administered the same vehicle supplemented with Telmisartan at a dose of 100 mg/kg (in 0.5% methyl cellulose in water) once daily from nine to twelve (9 to 12) weeks of age.
Group 3 (compound (1)): Ten NASH mice have been orally administered vehicle supplemented with compound (1) at a dose of 100 mg/kg (in 0.5% methyl cellulose in water) once daily from nine to twelve (9 to 12) weeks of age. The assessed parameters and histological outcome measures are described below.
as §4

In another experiment the test system is STAM animal model. The conditions noted are these: reference compound; cited from earlier work.

The text below walks through data of patent publication US11324743B2, “Treatment for the non alcoholic steatohepatitis and fibrosis” (METABOLYS, priority 2016, dated 2022).

Consider `O=C(O)CCC(=O)c1ccc(OCCN2CCN(c3ccccn3)CC2)cc1` [Compound (1)], for which the “amount of liver triglycerides (TG)” value in the experiment with NASH mice (STAM model) [1] (100 mg/kg orally once daily from 6 to 9 weeks of age (FIG. 2)) and in the experiment on NASH mice (STAM model) [2] (100 mg/kg orally once daily from 9 to 12 weeks of age (FIG. 2)) was “reduction” throughout. Moreover, the “amount of plasma triglycerides (TG)” value is “reduction” in the experiment with NASH mice (STAM model) [1] (100 mg/kg orally once daily from 6 to 9 weeks of age (FIG. 3)) and “reduction” in the experiment on NASH mice (STAM model) [2] (100 mg/kg orally once daily from 9 to 12 weeks of age (FIG. 3), effect especially in study 2). Further, the “NAFLD activity score (NAS)” value in the experiment on NASH mice (STAM model) [1] (100 mg/kg orally once daily from 6 to 9 weeks of age, in comparison to both vehicle and Telmisartan) is reported as “significant reduction”; with NASH mice (STAM model) [2] (100 mg/kg orally once daily from 9 to 12 weeks of age, in comparison to both vehicle and Telmisartan), “significant reduction”.
With `CCCc1nc2c(C)cc(-c3nc4ccccc4n3C)cc2n1Cc1ccc(-c2ccccc2C(=O)O)cc1` [Telmisartan], in the experiment with STAM animal model, the “activity to treat NASH and fibrosis” value is reported as “active”.
